“Also recorded” adds a separate entry of the source. Non-standard residues stand in square brackets, D forms with d. No end group written: not given here.
Columns and labels:
[1] = tested on: type III allergic (Arthus) reaction-induced rats; experiment: Immune-complex disease suppression in type III allergic (Arthus) reaction-induced rats, Part 1; assay type: in vivo
Procedure: Using sixty-four 7-week-old male Slc:Wistar rats, examinations were made on peptides R1, R2, and R5, in two series of examinations, each using a different method of administration (intraperitoneal administration and tail vein administration). Acclimation was carried out by giving normal solid chow CRF-1 for a period of 9 days or longer. The back of the animals was shaved on the day prior to administration, and a mixed solution of OVA and Evans blue dye was administered into the tail vein on the day of administration. Each peptide solution was administered intraperitoneally or into the tail vein 30 minutes or 50 minutes after the administration of the mixed solution of OVA and Evans blue dye, respectively. For intracutaneous administration of an anti-OVA solution, […] was intracutaneously administered in the back of animals at a dose of 0.1 ml/site 30 minutes or 10 minutes after the administration of the tested substance in the case of intraperitoneal or intravenous administration, respectively, so as to generate a local Arthus reaction. After the reaction was allowed to be generated for 4 hours, the animals were euthanized, the blood was removed thoroughly, and then the dorsal skin was exfoliated. The Arthus reaction sites on the exfoliated skin were punched out, and the Evans blue dye was extracted from the punched skin overnight. The amount of dye leakage was quantified by measuring absorbance for the Evans blue dye with a spectrophotometer and using a calibration curve (see, H. Okamoto, Y. Iwahisa, and M. Terasawa, “Suppression of the Arthus reaction by Y-24180, a potent and specific antagonist of platelet-activating factor”, Agents Actions, 35:149-158 (1992), for experimental procedures used in Example 4).
A predetermined amount of each peptide (peptides R1, R2, and R5) was dissolved in physiological saline to make a 20 mg/ml solution. A 2 mg/ml solution was prepared by diluting the 20 mg/ml solution 10-fold with physiological saline. A 5 mg/ml solution was prepared by dissolving each peptide in a predetermined amount in physiological saline to make a prepared solution.
A mixed solution of OVA and Evans blue dye was administered into the tail vein at a dose of 2 ml/kg. Each peptide solution was administered intraperitoneally or into the tail vein 30 minutes or 50 minutes after the administration of the mixed solution of OVA and Evans blue dye, respectively. For intracutaneous administration of an anti-OVA solution, […] was intracutaneously administered in the back of animals at a dose of 0.1 mL/site 30 minutes or 10 minutes after the administration of the tested substance in the case of intraperitoneal or intravenous administration, respectively, so as to generate a local Arthus reaction. Intracutaneous administration was conducted at 2 sites for PBS and at 2 sites for the anti-OVA solution per animal. After the reaction was allowed to be generated for 4 hours, the animals were euthanized by decapitation under ether anesthesia, the blood was removed thoroughly, and then the dorsal skin was exfoliated. The Arthus reaction sites on the exfoliated skin were punched out and subjected to dye extraction.
Several cuttings were made in the skin strips that were punched out with a punch. […] The amount of dye leakage was calculated from a calibration curve of known amounts of the dye.
The mean value (mean)±standard deviation (SD) for each group was calculated with body-weight measurements and amounts of dye leakage. […]

[2] = tested on: Monoclonal antibody cocktail-induced arthritis mice; experiment: Arthritis suppressing effects on arthritis-induced mice, Part 2; assay type: in vivo; conditions: 10 mg/kg intraperitoneal twice a day, 14 consecutive days from day 0
Procedure: Monoclonal antibody cocktail-induced arthritis mice were used to examine arthritis suppressing effects of peptides which are indicated as R1, R2, and R5 in Example 2. Arthritis was caused by intravenous administration of 2 mg/mouse of an arthritis-inducing monoclonal antibody cocktail and three days later, intraperitoneal administration of 50 μg/mouse of LPS. The peptides were administered at a dose of 10 mg/kg twice a day for a period of 14 consecutive days from the day of administration of the arthritis-inducing monoclonal antibody cocktail (day 0), and arthritis suppressing effect was examined in terms of clinical score. Experiments were carried out in a similar way to those in the section (1) in Example 3.
The required amount was calculated for each peptide, based on the animal weight. Each peptide solution was prepared to make a concentration of 1 mg/ml in a 0.5% methyl cellulose solution, and the prepared peptide solution was cold stored.
Measurement of body weight of animals was made on days 0, 3, 6, 9, 12, and 14 during the study period, with day 0 being the day of administration of the arthritis-inducing monoclonal antibody cocktail. Observation of general condition was made on a daily basis.
Mice were weighed on the day prior to start of administration and randomly assigned to groups using a grouping software, so that the average body weight values of the groups were approximately equal. To twenty 7-week-old mice, the arthritis-inducing monoclonal antibody cocktail was intravenously administered at a dose of 2 mg/mouse on day 0, and LPS was intraperitoneally administered at a dose of 50 μg/mouse on day 3.
Each peptide solution was given via intraperitoneal administration twice a day, morning and afternoon, from day 0. As a control, a 0.5% solution of methyl cellulose was intraperitoneally administered twice a day from day 0. A needle (26G; Terumo) and a syringe (1.0-ml capacity; Terumo) were used for administration. […]
Results of examinations were expressed by mean value±standard error and analyzed using EXSAS (Version 7.1.6, Arm Systex Co., Ltd.). […]

[3] = tested on: Cy3-labeled goat anti-mouse immunoglobulin (IgG); experiment: Peptide array of C1q subunit 15-mers probed with Cy3-labeled immunoglobulin; assay type: binding; conditions: peptide spots on glass array, 4° C., 12 hours, background fluorescence intensity is 2.6
Description: The amino acid sequences of the A, B, and C subunit chains of human C1q, are shown in SEQ ID NOs: 17 to 19, and the nucleotide sequences in SEQ ID NOs: 20 to 22. Based on each of the amino acid sequences, sequences having 15 amino acids (residues) from each subunit and shifted at intervals of three amino acids, were synthesized on a glass array as synthetic peptides (Peptide Nos. 1 to […], and 193 to 270 for the A, B, and C chains, respectively). The synthesis of each peptide was carried out at a specific location on the array, so as to prepare a peptide array which included the synthetic peptides covering the entire amino acid sequences of the subunits of C1q. The preparation of the array was outsourced to JPT Peptide Technologies GmbH.
To the peptide array was applied 330 μl of an Cy3-labeled goat anti-mouse immunoglobulin (IgG) (1 mg/ml; Zymed Laboratories) diluted 1000-fold with PBS (10 mM phosphate buffer, pH 7.0, 0.1 M NaCl), and the array was sealed and then incubated at 4° C. for 12 hours. After that, the array was washed once with methanol and then 5 times with Milli-Q water for 5 minutes each. The array slide was centrifuged and dried, and scanned with a fluorescence scanner (Agilent DNA microarray scanner; Agilent Technologies), so that fluorescence intensity was quantified at the respective peptide spots on the array using a software (Feature Extraction software; Agilent Technologies). Several spots displaying strong fluorescence intensities were detected. […] Note that in the description, the amino acids are denoted by the one-letter code known in the art.

[4] = tested on: Monoclonal antibody cocktail-induced arthritis mice; experiment: Arthritis suppressing effects on arthritis-induced mice, Part 4; assay type: in vivo; conditions: intraperitoneal 100 mg/kg once a day from day 4; methotrexate 0.1 mg/kg
Procedure: Monoclonal antibody cocktail-induced arthritis mice were used to examine arthritis suppressing effects of peptides which are indicated as R13 in the section (3) in Example 2 and as R19 and R21 in the section (4) in Example 2. Arthritis was caused by intravenous administration of 2 mg/mouse of an arthritis-inducing monoclonal antibody cocktail and three days later, intraperitoneal administration of 50 μg/mouse of LPS. The peptides […] days from four days after the administration of the arthritis-inducing monoclonal antibody cocktail, and arthritis suppressing effect was examined in terms of clinical score and hind-limb volume determination.
The required amount was calculated for each peptide, based on the animal weight. […]
Measurement of body weight of animals was made on days 0, 3, 6, 9, 12, and 14 during the study period, with day 0 being the day of administration of the arthritis-inducing monoclonal antibody cocktail. Observation of general condition was made on a daily basis. […]
Results of examinations were expressed by mean value±standard error and analyzed using EXSAS (Version 7.1.6, Arm Systex Co., Ltd.). […] Quantitative data, such as body weights and leg volumes, were subjected to Bartlett's test, followed by Dunnett's multiple comparison test when the variance was uniform or Steel's multiple comparison test when the variance was not uniform.

[5] = target: Cy3-labeled goat anti-mouse immunoglobulin (IgG) (goat); experiment: peptide array on glass, Cy3-labelled goat anti-mouse IgG, fluorescence scanner; background 2.6
[6] = intraperitoneal administration, 10 or 100 mg/kg
[7] = tail vein administration, 10 mg/kg

| Molecule | Fluorescence intensity [3] | Fluorescence intensity [5] | also measured |
| --- | --- | --- | --- |
| PGLYYF (Immunoglobulin binding peptide) [R1] |  |  | effect of immune-complex disease suppression (dye leakage) [1, 6]: clear and satisfactory effects of immune-complex disease suppression; also recorded: suppressed; effect of immune-complex disease suppression (dye leakage) [1, 7]: clear and satisfactory effects of immune-complex disease suppression; also recorded: suppressed; arthritis suppressing effect (clinical score) [2]: Arthritis suppressing effects were observed; also recorded: arthritis was suppressed |
| CKVPGLYYFVYHASH (Immunoglobulin binding peptide) [R6] | 65,313 |  |  |
| SGKFTCKVPGLYYFT (Immunoglobulin binding peptide) [R3] | 65,300 |  |  |
| CKVPGLYYF (Immunoglobulin binding peptide) [R2] |  |  | effect of immune-complex disease suppression (dye leakage) [1, 6]: clear and satisfactory effects of immune-complex disease suppression; also recorded: suppressed; effect of immune-complex disease suppression (dye leakage) [1, 7]: clear and satisfactory effects of immune-complex disease suppression; also recorded: suppressed; arthritis suppressing effect (clinical score) [2]: Arthritis suppressing effects were observed; also recorded: arthritis was suppressed |
| FTCKVPGLYYFTYHA (Immunoglobulin binding peptide) [R4] | 65,311 |  |  |
| KFTCKVPGLYYFVYH (Immunoglobulin binding peptide) [compound 245] | 65,311 |  |  |
| dSdTGdKdFdTdSdKdVdPGdLdYdYdF ([dS][dT]G[dK][dF][dT][dS][dK][dV][dP]G[dL][dY][dY][dF]) [R21] |  |  | arthritis-suppressing effect (clinical score) compared with methotrexate [4]: arthritis-suppressing effect comparable to or greater than that of methotrexate |
| KFTCKVPGLYYFVYH [Peptide No. 245 (…)] |  | 65300 |  |
| STGKFTCKVPGLYYF [peptide R5 (…)] |  | 65300 |  |
| SGKFTCKVPGLYYFT [peptide R3 (…)] |  | 65300 |  |
| CKVPGLYYFVYHASH [peptide R6 (…)] |  | 65300 |  |
| FTCKVPGLYYFTYHA [peptide R4 (…)] |  | 65300 |  |

— US20110306554A1, “PEPTIDE CAPABLE OF BINDING TO IMMUNOGLOBULIN” (priority 2009, published 2011)
